Results: BindingDB's records for doi:10.7270/Q2PZ576Z (The Scripps Research Institute Molecular Screening Center, 2007)

Molecular target: Sphingosine 1-phosphate receptor 3 (Homo sapiens, UniProt Q99500)
Test: S1P3 receptor activation, EC50 – cell-based, NFAT-BLA reporter, dose response (AID 439)
[1] = inactive by the depositor's call

Sphingosine 1-phosphate receptor 3, sequence (Q99500 whole entry): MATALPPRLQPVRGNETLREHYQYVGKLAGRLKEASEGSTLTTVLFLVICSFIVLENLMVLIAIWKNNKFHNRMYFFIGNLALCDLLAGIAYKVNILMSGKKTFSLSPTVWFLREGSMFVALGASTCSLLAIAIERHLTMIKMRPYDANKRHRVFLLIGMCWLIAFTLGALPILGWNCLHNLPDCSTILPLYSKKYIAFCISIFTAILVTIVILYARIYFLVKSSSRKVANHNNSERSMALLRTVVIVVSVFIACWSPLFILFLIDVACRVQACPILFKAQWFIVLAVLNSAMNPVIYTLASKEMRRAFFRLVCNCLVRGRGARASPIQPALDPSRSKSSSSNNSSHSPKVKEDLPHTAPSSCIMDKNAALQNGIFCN

SMILES | EC50 [µM] | EC50 [1] [µM]
O=C(NC1=NCCS1)c1cc(-c2ccccc2)nn1-c1ccccc1 | – | 41.7
Cc1cc(NC(=O)NC(=O)c2cccc(OC(F)(F)C(F)F)c2)[nH]n1 | > 45 | –
CCCSc1nc(N2CCOCC2)c2c(c1C#N)CCCC2 [1-(4-morpholinyl)-3-(propylthio)-5,6,7,8-tetrahydroisoquinoline-4-carbonitrile] | 4.34 | –
CC(Oc1ccccc1Br)C(=O)N1CCc2ccccc21 (stereo not drawn) [1-[2-(2-bromophenoxy)propanoyl]indoline] | – | 25.2
Cc1cc(C)n(-c2nc(NCC(C)O)c3c4c(sc3n2)CCCC4)n1 (stereo not drawn) [1-[[2-(3,5-dimethyl-1-pyrazolyl)-5,6,7,8-tetrahydro-[1]benzothiolo[2,3-d]pyrimidin-4-yl]amino]-2-propanol] | 7.79 | –
CC(C)n1c(=N)c(C(=O)NCCc2ccccc2)cc2c(=O)n3ccccc3nc21 [2-Imino-1-isopropyl-10-oxo-1,10-dihydro-2H-1,9,10a-triaza-anthracene-3-carboxylic acid phenethyl-amide] | > 45 | –
OCCN1CCN(c2nc(-c3ccccc3)c3cc(Cl)ccc3n2)CC1 [2-[4-(6-chloranyl-4-phenyl-quinazolin-2-yl)piperazin-1-yl]ethanol] | – | 108
CCCCC(=O)NC(Nc1nc(C2CC2)cs1)(C(=O)OCC)C(F)(F)F (stereo not drawn) [2-[(4-cyclopropyl-2-thiazolyl)amino]-3,3,3-trifluoro-2-(1-oxopentylamino)propanoic acid ethyl ester] | 9.87 | –
N#CCSc1nnc(-c2ccccc2)c(-c2ccccc2)n1 [2-[(5,6-diphenyl-1,2,4-triazin-3-yl)sulfanyl]acetonitrile] | – | 47.4
CCC(C)NC(=O)c1c(N)n(Cc2ccc3c(c2)OCO3)c2nc3ccccc3nc12 (stereo not drawn) [2-amino-1-(1,3-benzodioxol-5-ylmethyl)-N-butan-2-ylpyrrolo[3,2-b]quinoxaline-3-carboxamide] | 7.93 | –
Nc1c(C(=O)NCCc2ccccc2)c2nc3ccccc3nc2n1CCN1CCOCC1 [2-amino-1-(2-morpholin-4-ylethyl)-N-(2-phenylethyl)pyrrolo[3,2-b]quinoxaline-3-carboxamide] | – | 37.5
CCCCCCn1c(N)c(C(=O)NCCN2CCOCC2)c2nc3ccccc3nc21 [2-amino-1-hexyl-N-(2-morpholin-4-ylethyl)pyrrolo[3,2-b]quinoxaline-3-carboxamide] | – | 42.3
CCOC(=O)C1C(=N)OC2=C(C(=O)CCC2)C1c1ccccc1OCC (stereo not drawn) [2-amino-4-(2-ethoxyphenyl)-5-oxo-4,6,7,8-tetrahydro-1-benzopyran-3-carboxylic acid ethyl ester] | 18.5 | –
Nc1c(C(=O)NCc2ccco2)c2nc3ccccc3nc2n1CCN1CCCCC1 [2-amino-N-(2-furanylmethyl)-1-[2-(1-piperidinyl)ethyl]-3-pyrrolo[3,2-b]quinoxalinecarboxamide] | > 45 | –
COc1ccc(Cn2c(N)c(C(=O)NCc3ccco3)c3nc4ccccc4nc32)cc1 [2-amino-N-(2-furanylmethyl)-1-[(4-methoxyphenyl)methyl]-3-pyrrolo[3,2-b]quinoxalinecarboxamide] | – | 19.8
CC(C)OCCCNC(=O)c1c(N)n(Cc2cccs2)c2nc3ccccc3nc12 [2-amino-N-(3-propan-2-yloxypropyl)-1-(thiophen-2-ylmethyl)pyrrolo[3,2-b]quinoxaline-3-carboxamide] | – | 22.2
Nc1c(C(=O)NCCN2CCOCC2)c2nc3ccccc3nc2n1CCc1ccccc1 [2-amino-N-[2-(4-morpholinyl)ethyl]-1-(2-phenylethyl)-3-pyrrolo[3,2-b]quinoxalinecarboxamide] | – | 178

SMILES | EC50 [µM] | EC50 [1] [µM]
Cc1nc(-c2ccccc2)cc(N2CCCC2)n1 [2-methyl-4-phenyl-6-(1-pyrrolidinyl)pyrimidine] | > 45 | –
CCSc1nc(N2CCOCC2)c2c(c1C#N)CCCC2 [3-(ethylthio)-1-(4-morpholinyl)-5,6,7,8-tetrahydroisoquinoline-4-carbonitrile] | – | 14.5
Cc1cc(C)n(-c2nc(NCCCO)c3c4c(sc3n2)CCCC4)n1 [3-[[2-(3,5-dimethyl-1-pyrazolyl)-5,6,7,8-tetrahydro-[1]benzothiolo[2,3-d]pyrimidin-4-yl]amino]-1-propanol] | 4.28 | –
O=c1c2ccccc2nnn1CSc1nnc(C2COc3ccccc3O2)n1-c1ccccc1 (stereo not drawn) [3-[[5-(2,3-dihydro-1,4-benzodioxin-3-yl)-4-phenyl-1,2,4-triazol-3-yl]sulfanylmethyl]-1,2,3-benzotriazin-4-one] | – | 29.5
O=C(Oc1ccc(-c2nnco2)cc1)N(c1ccccc1)c1ccccc1 [4-(1,3,4-oxadiazol-2-yl)phenyl diphenylcarbamate] | – | 14.1
c1ccc(-c2nnc(N3CCOCC3)nc2-c2ccccc2)cc1 [4-(5,6-diphenyl-1,2,4-triazin-3-yl)morpholine] | 6.63 | –
c1ccc(C(Cc2nc(-c3ccncc3)no2)c2ccccc2)cc1 [4-[5-(2,2-diphenylethyl)-1,2,4-oxadiazol-3-yl]pyridine] | 5.24 | –
Cc1ccc(C(C)C)c(OCc2nc(-c3nonc3N)no2)c1 [4-[5-[(5-methyl-2-propan-2-yl-phenoxy)methyl]-1,2,4-oxadiazol-3-yl]-1,2,5-oxadiazol-3-amine] | – | 74.6
c1ccc(-c2nc3nonc3nc2-c2ccccc2)cc1 [5,6-diphenyl-[1,2,5]oxadiazolo[3,4-b]pyrazine] | – | 41.6
c1ccc(C(Cc2nc(-c3ccccn3)no2)c2ccccc2)cc1 [5-(2,2-diphenylethyl)-3-(2-pyridinyl)-1,2,4-oxadiazole] | – | 21.1
c1ccc(C(Cc2nc(-c3cccnc3)no2)c2ccccc2)cc1 [5-(2,2-diphenylethyl)-3-(3-pyridinyl)-1,2,4-oxadiazole] | – | 13.5
Cn1c(=O)c2c(-c3ccccc3)n(C3CCCCC3)cc2n(C)c1=O [6-cyclohexyl-1,3-dimethyl-5-phenyl-pyrrolo[3,4-d]pyrimidine-2,4-dione] | – | 31.2
C/C(Cl)=C/Cn1c(N2CCCC2)nc2c1c(=O)n(C)c(=O)n2C [7-((Z)-3-Chloro-but-2-enyl)-1,3-dimethyl-8-pyrrolidin-1-yl-3,7-dihydro-purine-2,6-dione] | – | 38.5
COCCCn1c(N)c(C(=O)NCCC(C)C)c2nc3ccccc3nc21 [MLS000041744] | – | 31.4
CCCN(CCC)CCCNC(=O)CC1Nc2ccccc2NC1=O (stereo not drawn) [MLS000046817] | > 45 | –
O=C(NCc1ccco1)c1cc2ccc(O)cc2oc1=O [MLS000049147] | – | 17.7

Other lines, results leading:

EC50 [µM] | EC50 [1] [µM] | SMILES
> 45 | – | Clc1ccc2nc(N3CCNCC3)nc(-c3ccccc3)c2c1
– | 26.4 | Cc1cc(-n2c(=O)c(C#N)cc3c(=O)n4ccccc4nc32)no1
6.42 | – | CC(=O)Oc1ccc2cc(-c3nc4ccccc4n3C)c(=O)oc2c1
– | 17.4 | Cc1cccn2c(=O)c3cc(C(=O)NC(C)c4ccccc4)c(=N)n(CCCn4ccnc4)c3nc12 (stereo not drawn) [1-(3-imidazol-1-ylpropyl)-2-imino-10-methyl-5-oxo-N-(1-phenylethyl)dipyrido[3,4-c:1',2'-f]pyrimidine-3-carboxamide]
– | 18.6 | COc1ccc(CCn2c(C)cc(C(=O)CSc3nnnn3C)c2C)cc1 [1-[1-[2-(4-methoxyphenyl)ethyl]-2,5-dimethyl-3-pyrrolyl]-2-[(1-methyl-5-tetrazolyl)thio]ethanone]
> 45 | – | O=C(OCCN1C(=O)c2ccccc2C1=O)c1cccc(OC(F)F)c1 [2-(1,3-dioxoisoindol-2-yl)ethyl 3-(difluoromethoxy)benzoate]
– | 15.3 | Cc1cc(C)n(-c2nc(NCc3cccnc3)c3c4c(sc3n2)COC(C)(C)C4)n1 [2-(3,5-dimethyl-1-pyrazolyl)-6,6-dimethyl-N-(3-pyridinylmethyl)-5,8-dihydropyrano[4,5]thieno[1,2-c]pyrimidin-4-amine]
– | 13.3 | COCCNc1nc(-n2nc(C)cc2C)nc2sc3c(c12)CCCC3 [2-(3,5-dimethyl-1-pyrazolyl)-N-(2-methoxyethyl)-5,6,7,8-tetrahydro-[1]benzothiolo[2,3-d]pyrimidin-4-amine]
2.34 | – | Cc1cc(C)nc(-n2nc(C)c(Sc3ccc(F)cc3)c2N)n1 [2-(4,6-dimethyl-2-pyrimidinyl)-4-[(4-fluorophenyl)thio]-5-methyl-3-pyrazolamine]
– | 14.7 | COc1ccc(Nc2nc(Nc3ccc(OC)cc3)nc(-n3[nH]c(=O)c(C)c3C)n2)cc1 [2-[4,6-bis(4-methoxyanilino)-1,3,5-triazin-2-yl]-3,4-dimethyl-1H-pyrazol-5-one]
– | 45 | COc1ccc(CCn2c(N)c(C(=O)NCc3ccco3)c3nc4ccccc4nc32)cc1OC [2-amino-1-[2-(3,4-dimethoxyphenyl)ethyl]-N-(2-furanylmethyl)-3-pyrrolo[3,2-b]quinoxalinecarboxamide]
– | 19.1 | Nc1c(C(=O)NCc2ccc3c(c2)OCO3)c2nc3ccccc3nc2n1CCCN1CCOCC1 [2-amino-N-(1,3-benzodioxol-5-ylmethyl)-1-(3-morpholin-4-ylpropyl)pyrrolo[3,2-b]quinoxaline-3-carboxamide]
> 45 | – | Cc1ccc(-c2cc(-c3ccc(Cl)cc3)c(C#N)c(N)n2)o1 [2-azanyl-4-(4-chlorophenyl)-6-(5-methylfuran-2-yl)pyridine-3-carbonitrile]
– | 11.6 | CCOc1ccc(-c2noc(-c3ccncc3)n2)cc1OCC [3-(3,4-diethoxyphenyl)-5-(4-pyridyl)-1,2,4-oxadiazole]
– | 23.5 | CCCn1c(=O)c2ccccc2n2c(SCc3c(C(=O)OCC)oc4ccccc34)nnc12 [3-[[(5-keto-4-propyl-[1,2,4]triazolo[4,3-a]quinazolin-1-yl)thio]methyl]coumarilic acid ethyl ester]
– | 17.2 | COc1ccccc1Oc1cc(C#N)c(C#N)cc1-n1nnc2ccccc21 [4-(1-benzotriazolyl)-5-(2-methoxyphenoxy)benzene-1,2-dicarbonitrile]
> 45 | – | CCOC(=O)N1CCN(C(=O)c2nn(-c3cc(OC)cc(OC)c3)c(=O)c3ccccc23)CC1 [4-[3-(3,5-dimethoxyphenyl)-4-keto-phthalazine-1-carbonyl]piperazine-1-carboxylic acid ethyl ester]
2.77 | – | CCOc1ccc(-c2nc(-c3ccncc3)no2)cc1OCC [4-[5-(3,4-diethoxyphenyl)-1,2,4-oxadiazol-3-yl]pyridine]
– | 19.2 | CCOc1ccc(-c2nc(-c3ccccc3)no2)cc1OCC [5-(3,4-diethoxyphenyl)-3-phenyl-1,2,4-oxadiazole]
> 45 | – | CCCCn1c(NC(=O)c2ccc(F)cc2)c(C#N)c2nc3ccccc3nc21 [MLS000055622]
